System: maize haploids
Assay: Colchicine doubling treatment of BC3 haploids, pollen and kernel phenotypes in the field
Type: in vivo
Settings: for Average Number of Days of Pollen per Plant / Average Number of Kernels per Plant / Percent of Plants with Ears >5 kernels: colchicine-treated haploids
Source text: Genotyping was used to identify heterozygotes at SCD-QTL1, and those materials were then crossed by a haploid inducer, embryos isolated from the immature ears, and haploids regenerated for transplant into the field. Immediately after isolation, embryos from each of the 17 BC3 populations were split into 2 treatment groups. […] All lines were planted across three replications of the trial over the course of approximately 6 months, and the data was pooled for analysis.

[1] = BC3 recurrent parent Line 1, SCD Allele
[2] = BC3 recurrent parent Line 1, Unfavorable Allele
[3] = BC3 recurrent parent Line 2, SCD Allele
[4] = BC3 recurrent parent Line 2, Unfavorable Allele
[5] = BC3 recurrent parent Line 3, SCD Allele
[6] = BC3 recurrent parent Line 3, Unfavorable Allele
[7] = BC3 recurrent parent Line 4, SCD Allele
[8] = BC3 recurrent parent Line 4, Unfavorable Allele
[9] = BC3 recurrent parent Line 5, SCD Allele
[10] = BC3 recurrent parent Line 5, Unfavorable Allele
[11] = BC3 recurrent parent Line 6, SCD Allele
[12] = BC3 recurrent parent Line 6, Unfavorable Allele
[13] = BC3 recurrent parent Line 7, SCD Allele
[14] = BC3 recurrent parent Line 7, Unfavorable Allele
[15] = BC3 recurrent parent Line 8, SCD Allele
[16] = BC3 recurrent parent Line 8, Unfavorable Allele
[17] = BC3 recurrent parent Line 9, SCD Allele
[18] = BC3 recurrent parent Line 9, Unfavorable Allele
[19] = BC3 recurrent parent Line 10, SCD Allele
[20] = BC3 recurrent parent Line 10, Unfavorable Allele
[21] = BC3 recurrent parent Line 11, SCD Allele
[22] = BC3 recurrent parent Line 11, Unfavorable Allele
[23] = BC3 recurrent parent Line 12, SCD Allele
[24] = BC3 recurrent parent Line 12, Unfavorable Allele
[25] = BC3 recurrent parent Line 13, SCD Allele
[26] = BC3 recurrent parent Line 13, Unfavorable Allele
[27] = BC3 recurrent parent Line 14, SCD Allele
[28] = BC3 recurrent parent Line 14, Unfavorable Allele
[29] = BC3 recurrent parent Line 15, SCD Allele
[30] = BC3 recurrent parent Line 15, Unfavorable Allele
[31] = BC3 recurrent parent Line 16, SCD Allele
[32] = BC3 recurrent parent Line 16, Unfavorable Allele
[33] = BC3 recurrent parent Line 17, SCD Allele
[34] = BC3 recurrent parent Line 17, Unfavorable Allele

## COc1cc2c(c(OC)c1OC)-c1ccc(OC)c(=O)cc1[C@@H](NC(C)=O)CC2 [Colchicine, colchicine]
[1]
  Average Number of Days of Pollen per Plant: 3.1 days
  Average Number of Kernels per Plant: 23.8 kernels
  Percent of Plants with Ears >5 kernels: 53.9%
[2]
  Average Number of Days of Pollen per Plant: 2.4 days
  Average Number of Kernels per Plant: 13.5 kernels
  Percent of Plants with Ears >5 kernels: 26.6%
[3]
  Average Number of Days of Pollen per Plant: 1.72 days
  Average Number of Kernels per Plant: 5 kernels
  Percent of Plants with Ears >5 kernels: 12.0%
[4]
  Average Number of Days of Pollen per Plant: 2.35 days
  Average Number of Kernels per Plant: 9.62 kernels
  Percent of Plants with Ears >5 kernels: 13.5%
[5]
  Average Number of Days of Pollen per Plant: 1.76 days
  Average Number of Kernels per Plant: 7.62 kernels
  Percent of Plants with Ears >5 kernels: 6.9%
[6]
  Average Number of Days of Pollen per Plant: 1.45 days
  Average Number of Kernels per Plant: 9.03 kernels
  Percent of Plants with Ears >5 kernels: 9.1%
[7]
  Average Number of Days of Pollen per Plant: 0.04 days
  Average Number of Kernels per Plant: 0 kernels
  Percent of Plants with Ears >5 kernels: 0.0%
[8]
  Average Number of Days of Pollen per Plant: 0.57 days
  Average Number of Kernels per Plant: 7.1 kernels
  Percent of Plants with Ears >5 kernels: 13.2%
[9]
  Average Number of Days of Pollen per Plant: 2.34 days
  Average Number of Kernels per Plant: 2.31 kernels
  Percent of Plants with Ears >5 kernels: 3.1%
[10]
  Average Number of Days of Pollen per Plant: 2.19 days
  Average Number of Kernels per Plant: 4.88 kernels
  Percent of Plants with Ears >5 kernels: 7.6%
[11]
  Average Number of Days of Pollen per Plant: 1.675 days
  Average Number of Kernels per Plant: 11.23 kernels
  Percent of Plants with Ears >5 kernels: 25.0%
[12]
  Average Number of Days of Pollen per Plant: 2.01 days
  Average Number of Kernels per Plant: 19.09 kernels
  Percent of Plants with Ears >5 kernels: 27.2%
[13]
  Average Number of Days of Pollen per Plant: 1.58 days
  Average Number of Kernels per Plant: 53.5 kernels
  Percent of Plants with Ears >5 kernels: 37.9%
[14]
  Average Number of Days of Pollen per Plant: 1.298 days
  Average Number of Kernels per Plant: 54.18 kernels
  Percent of Plants with Ears >5 kernels: 29.9%
[15]
  Average Number of Days of Pollen per Plant: 1.72 days
  Average Number of Kernels per Plant: 37.34 kernels
  Percent of Plants with Ears >5 kernels: 31.1%
[16]
  Average Number of Days of Pollen per Plant: 1.466 days
  Average Number of Kernels per Plant: 26.17 kernels
[17]
  Average Number of Days of Pollen per Plant: 2.58 days
  Average Number of Kernels per Plant: 27.9 kernels
[18]
  Average Number of Days of Pollen per Plant: 2.51 days
  Average Number of Kernels per Plant: 24.067 kernels
  Percent of Plants with Ears >5 kernels: 29.3%
[19]
  Average Number of Days of Pollen per Plant: 1.12 days
  Average Number of Kernels per Plant: 23.17 kernels
[20]
  Average Number of Days of Pollen per Plant: 1.005 days
  Average Number of Kernels per Plant: 13.75 kernels
  Percent of Plants with Ears >5 kernels: 26.4%
[21]
  Average Number of Days of Pollen per Plant: 1.09 days
  Average Number of Kernels per Plant: 4.97 kernels
  Percent of Plants with Ears >5 kernels: 8.7%
[22]
  Average Number of Days of Pollen per Plant: 1.2 days
  Average Number of Kernels per Plant: 18.11 kernels
  Percent of Plants with Ears >5 kernels: 17.5%
[23]
  Average Number of Days of Pollen per Plant: 1.25 days
  Average Number of Kernels per Plant: 19.56 kernels
  Percent of Plants with Ears >5 kernels: 28.5%
[24]
  Average Number of Days of Pollen per Plant: 0.96 days
  Average Number of Kernels per Plant: 22.12 kernels
  Percent of Plants with Ears >5 kernels: 21.3%
[25]
  Average Number of Days of Pollen per Plant: 1.45 days
  Average Number of Kernels per Plant: 32.5 kernels
  Percent of Plants with Ears >5 kernels: 25.8%
[26]
  Average Number of Days of Pollen per Plant: 1.33 days
  Average Number of Kernels per Plant: 24.5 kernels
  Percent of Plants with Ears >5 kernels: 24.7%
[27]
  Average Number of Days of Pollen per Plant: 1.28 days
  Average Number of Kernels per Plant: 31 kernels
  Percent of Plants with Ears >5 kernels: 29.9%
[28]
  Average Number of Days of Pollen per Plant: 1.1 days
  Average Number of Kernels per Plant: 40.57 kernels
  Percent of Plants with Ears >5 kernels: 26.2%
[29]
  Average Number of Days of Pollen per Plant: 2.66 days
  Average Number of Kernels per Plant: 45.47 kernels
  Percent of Plants with Ears >5 kernels: 64.9%
[30]
  Average Number of Days of Pollen per Plant: 2.81 days
  Average Number of Kernels per Plant: 72.9 kernels
  Percent of Plants with Ears >5 kernels: 72.2%
[31]
  Average Number of Days of Pollen per Plant: 1.65 days
  Average Number of Kernels per Plant: 31.56 kernels
[32]
  Average Number of Days of Pollen per Plant: 1.67 days
  Average Number of Kernels per Plant: 28.03 kernels
  Percent of Plants with Ears >5 kernels: 37.6%
[33]
  Average Number of Days of Pollen per Plant: 2.63 days
  Average Number of Kernels per Plant: 52.86 kernels
  Percent of Plants with Ears >5 kernels: 49.1%
[34]
  Average Number of Days of Pollen per Plant: 2.51 days
  Average Number of Kernels per Plant: 58.48 kernels
  Percent of Plants with Ears >5 kernels: 50.4%
colchicine-treated groups compared with SCD-QTL1 alone, 17 BC3 populations pooled
  pollen and kernel production: performed overall better in both pollen and kernel production than the SCD-QTL1 alone

Reference: patent US20250234824A1, “MARKERS ASSOCIATED WITH S[…]” (Syngenta Crop Protection AG, priority 2022, published 2025)
